Measured values from US4389327A, “Use of selected 1,2-dihydro-1,2,4,5-tetrazines as oxygen-scavenging agents” (priority 1982, dated 1983).

How the values were obtained:
[1] = Deoxygenation of air-saturated buffered distilled water (oxygen meter), time for removal of dissolved oxygen; settings: pH 9.5, about 25° C.; for T1/2, time required for removal of half of the dissolved oxygen: 2.4×10^-4 moles dissolved O2; for T9/10, time for removal of 90% of the oxygen: measured if under 10 minutes
Procedure: Weighed amounts of this compound were placed in 100 ml volumetric flasks and diluted with deoxygenated, deionized water. Aliquots of this mixture were injected in the test cell as shown in Example 4.
Again, weighed amounts of this compound were placed in 100 ml volumetric flasks and diluted with deoxygenated, deionized water. Aliquots of this mixture were injected into the test cell as shown in Example 4.
These deoxygenation measurements were run in a one liter round bottom flask equipped with a small septum-covered side arm and a standard taper joint into which was inserted the probe of an oxygen meter (Model 54 made by Yellow Springs Instrument Co. of Yellow Springs, Ohio). For each test, the flask was filled with air-saturated, buffered (with Na2 CO3 /NaHCO3 to pH of 9.5) distilled water. The amount of dissolved O2 content in the water was 2.4×10^-4 moles.
After filling with water, the probe was inserted into the flask and a sample of the compound made in Examples 1, 2, or 3 was injected through the side arm.
The times required for removal of half of the dissolved oxygen were measured (T1/2). Also, the times for removal of 90% of the oxygen (T9/10) were also measured if under 10 minutes.

[2] = Water solubility (remark); type: physicochemical
[3] = amount of compound 2.4 × 10^-4 moles
[4] = amount of compound 7.2 × 10^-4 moles
[5] = amount of compound 12.0 × 10^-4 moles

With `CCC1=NN=C(CC)NN1` [3,6-diethyl-1,2-dihydro-1,2,4,5-tetrazine] the “T1/2, time required for removal of half of the dissolved oxygen” value (“T1/2, time required for removal” below) [1, 3] was 7.5 min, the “T1/2, time required for removal” value [1, 4] was 0.9 min and the “T9/10, time for removal of 90% of the oxygen” value [1, 4] was 1.5 min. For the same molecule, the “T1/2, time required for removal” value [1, 5] was 0.6 min and the “T9/10, time for removal of 90% of the oxygen” value [1, 5] was 0.9 min.

For `CC1=NN=C(C)NN1` [3,6-dimethyl-1,2-dihydro-1,2,4,5-tetrazine], the “T1/2, time required for removal” value [1, 4] was 1.5 min, the “T9/10, time for removal of 90% of the oxygen” value [1, 4] was 2.2 min and the “T1/2, time required for removal” value [1, 5] was 0.12 min. The “T9/10, time for removal of 90% of the oxygen” value [1, 5] was 0.30 min.

In the case of `c1ccc(C2=NNC(c3ccccc3)=NN2)cc1` [3,6-diphenyl-1,2-dihydro-1,2,4,5-tetrazine], the “T1/2, time required for removal” value [1, 3] is reported as 6 min and the water solubility [2] is reported as “limited water solubility”.

For `NN` [hydrazine, reference compound], the “T1/2, time required for removal” value [1, 5] was over 10 min.
